This test deals with Mu-type opioid receptor (Homo sapiens, UniProt P35372). Nature of the test: FLIPR Calcium Assay. The method, then: One day before the assay, CORNING black with clear flat bottom 96-well assay plates were coated with a 0.1 mg/mL Poly-L-Lysine solution. CHO-K1/MOR/Gα15 cells were suspended in the F12 medium and plated at a density of 8×10^4 cells/well in 200 μL medium. Cells were incubated in a humidified atmosphere of 10% CO2 at 37° C. overnight so as to reach an 80-90% confluent cell monolayer before assay. At the day of assay, 150 μL medium/well was removed from plate. To each well, 50 μL FLIPR calcium assay reagent dissolved in 1× assay buffer (HBSS: KCl 5 mM, KH2PO4 0.3 mM, NaCl 138 mM, NaHCO3 4 mM, Na2HPO4 0.3 mM, d-glucose 5.6 mM, with additional 20 mM HEPES and 13 mM CaCl2, pH 7.4), with 2.5 mM probenecid was added and the plate was incubated at 37° C. for 1 h. Compounds and other reagents were dissolved in the assay buffer. Using a FlexStationIII (Molecular Devices Corp.), the [Ca2+]i fluorescence increases after robotic injections of compounds or other reagents were monitored every 1.52 s interval with excitation wavelength at 485 nm and with emission wavelength at 525 nm. The [Ca2+]i fluorescence was measured up to 90 s after agonist injection.
Mu-type opioid receptor, sequence (P35372 whole entry): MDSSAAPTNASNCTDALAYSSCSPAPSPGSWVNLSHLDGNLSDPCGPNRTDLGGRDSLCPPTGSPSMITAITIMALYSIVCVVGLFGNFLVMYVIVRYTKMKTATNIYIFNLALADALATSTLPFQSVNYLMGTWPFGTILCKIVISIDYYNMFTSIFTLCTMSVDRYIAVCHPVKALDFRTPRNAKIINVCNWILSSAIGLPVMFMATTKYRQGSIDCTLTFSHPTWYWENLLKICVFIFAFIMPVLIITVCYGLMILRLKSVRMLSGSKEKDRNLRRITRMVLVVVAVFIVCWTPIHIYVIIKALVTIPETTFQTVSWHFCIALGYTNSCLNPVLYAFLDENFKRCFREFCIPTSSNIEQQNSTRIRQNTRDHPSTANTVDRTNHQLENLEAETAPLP

The EC50 is the midpoint of the concentration-response curve. As to `COc1ccc(F)cc1N1C(=O)CSC1c1cccc(F)c1` (stereo not drawn) [US10544113, No. 5], the EC50 turned out to be 5.2 µM.
For `Cc1cc(C(=O)OCCCc2ccccc2)ccc1N1C(=O)CSC1c1ccc(F)cc1` (stereo not drawn) [US10544113, No. 253] the value was 11.2 µM; for `COCCOCCOC(=O)c1ccc(N2C(=O)CSC2c2ccc(F)cc2)c(C)c1` (stereo not drawn) [US10544113, No. 280], 7.1 µM; for `COCCCNC(=O)c1ccc(N2C(=O)CSC2c2ccc(F)cc2)c(C)c1` (stereo not drawn) [US10544113, No. 343], 3.7 µM.
For the compound `Cc1cc(C(=O)NCCc2ccccc2Cl)ccc1N1C(=O)CSC1c1ccc(F)cc1` (stereo not drawn) [US10544113, No. 384], the EC50 turned out to be 6.6 µM.
As for `Cc1cc(C(=O)NCCN2CCOCC2)ccc1N1C(=O)CSC1c1ccc(F)cc1` (stereo not drawn) [US10544113, No. 344], the EC50 was 7 µM.
For the compound `COc1ccc(F)cc1N1C(=O)CSC1c1ccc(F)cc1` (stereo not drawn) [US10544113, No. 6], the EC50 is 3.9 µM.
Consider `COc1ccccc1N1C(=O)CSC1c1ccc(F)cc1` (stereo not drawn) [US10544113, No. 2], for which the EC50 worked out at 19 µM.
`Cc1cccc(F)c1N1C(=O)CSC1c1ccc(F)cc1` (stereo not drawn) [US10544113, No. 108]: the half-maximal effective concentration (EC50) was determined as 3.3 µM.
As to `Cc1cc(C(=O)OCCN2CCCC2)ccc1N1C(=O)CSC1c1ccc(F)cc1` (stereo not drawn) [US10544113, No. 294], the 50% effective concentration (EC50) was determined as 2.9 µM.
As to `COc1ccc(F)cc1N1C(=O)CSC1c1ccc(F)c(F)c1` (stereo not drawn) [US10544113, No. 4], the EC50 was 3.3 µM.
As to `COc1ccccc1N1C(=O)CSC1c1cccc(F)c1` (stereo not drawn) [US10544113, No. 1], the concentration for a half-maximal effect (EC50) is 12.4 µM.
On to `COc1cc(N2C(=O)CSC2c2ccc(F)cc2)cc(OC)c1OC` (stereo not drawn) [US10544113, No. 16], for which the EC50 worked out at 8.3 µM.

(Values after BindingDB's records for patent US10544113 (National Health Research Institute; Regents of the …, 2020).)
